Test results reported in patent publication US9173402B2, “Fungicidal alkyl-substituted 2[2-chloro-4-(4-chioro-phenoxy)-phenyl]-1[1,2,4]triazol-1-yl-ethanol compounds” (BASF SE, priority 2011, dated 2015).
“And” between values parts separate entries of the source, which are not always exact repeats. Identical values can stand only once. Like-named read-outs stand apart in the source and are kept apart here.

Assays:
Septoria tritici [1] = assay: Preventative control of leaf blotch on wheat (comparative green house test); assay type: in vivo; conditions: % diseased leaf area after 4 weeks, untreated control 90
Method: (§1) The spray solutions were prepared in several steps: The stock solution were prepared: a mixture of acetone and/or dimethylsulfoxide and the wetting agent/emulsifier Wettol, which is based on ethoxylated alkylphenoles, in a relation (volume) solvent-emulsifier of 99 to 1 was added to 25 mg of the compound to give a total of 5 ml. Water was then added to total volume of 100 ml. This stock solution was diluted with the described solvent-emulsifier-water mixture to the given concentration. Leaves of pot-grown wheat seedling were sprayed to run-off with an aqueous suspension of the active compound or their mixture, prepared as described. The plants were allowed to air-dry. At the following day the plants were inoculated with an aqueous spore suspension of Septoria tritici. […] After 4 days the plants were transferred to a chamber with 18-22° C. and a relative humidity close to 70%. After 4 weeks the extent of fungal attack on the leaves was visually assessed as % diseased leaf area.

Pyrenophora teres = assay: Activity against net blotch on barley in the microtiter test; assay type: cell-based; conditions: comparative microtest Example 1, 7 days after inoculation
Method: The stock solutions were mixed according to the ratio, pipetted onto a micro titer plate (MTP) and diluted with water to the stated concentrations. A spore suspension of Pyrenophora teres in an aqueous biomalt or yeast-bactopeptone-glycerine solution was then added. The plates were placed in a water vapor-saturated chamber at a temperature of 18° C. Using an absorption photometer, the MTPs were measured at 405 nm 7 days after the inoculation.

Septoria tritici [2] = assay: Curative control of leaf blotch on wheat (comparative green house test); assay type: in vivo; conditions: wheat sprayed seven days after inoculation, % diseased leaf area after 4 weeks, untreated control 90
Method: as §1, with “were” for “were sprayed to run-off with an aqueous suspension of the active compound or their mixture, prepared as described. The plants were allowed to air-dry. At the following day the plants were”, “70%. Seven days after inoculation the plants were sprayed to run-off with an aqueous suspension of the active compound or their mixture, prepared as described. Then the plants were transferred back to the chamber with 18-22° C. and a relative humidity close to 70%.” for “70%.”

Fusarium culmorum = assay: Control of culm rot on pearl millet (comparative green house test); assay type: in vivo; conditions: pearl millet sprayed one day before inoculation, % diseased leaf area after 6 days
Method: The spray solutions were prepared in several steps:
The stock solution were prepared: a mixture of acetone and/or dimethylsulfoxide and the wetting agent/emulsifier Wettol, which is based on ethoxylated alkylphenoles, in a relation (volume) solvent-emulsifier of 99 to 1 was added to 25 mg of the compound to give a total of 5 ml.
Water was then added to total volume of 100 ml.
This stock solution was diluted with the described solvent-emulsifier-water mixture to the given concentration.
Pot-grown pearl millet seedlings with 2-3 leaves were sprayed to run-off with an aqueous suspension of the compound prepared as described. The plants were allowed to air-dry. At the following day the plants were inoculated with an spore suspension of Fusarium culmorum in a 2% aqueous malt solution. Then the trial plants were immediately transferred to a humid chamber. After 6 days at 23-25° C. and a relative humidity close to 100% the extent of fungal attack on the leaves was visually assessed as % diseased leaf area.

Alternaria solani = assay: Activity against early blight, microtiter test; assay type: cell-based; conditions: 7 days after inoculation; for Growth (%) at 0.000125 pm: comparative microtest Example 5; for Growth (%) at 0.5 pm: comparative microtest Example 2
Pyricularia oryzae [3] = assay type: cell-based; conditions: 7 days after inoculation
Pyricularia oryzae [4] = assay type: in vivo; conditions: rice sprayed seven days before inoculation, % diseased leaf area after 6 days, untreated control 90
Botrytis cinerea = assay: Activity against grey mold in the microtiterplate test; assay type: cell-based; conditions: 7 days after inoculation; for Growth (%) at 0.5 pm: comparative microtest Example 3
Septoria tritici [5] = assay: Activity against leaf blotch on wheat, microtiter test; assay type: cell-based; conditions: 32 ppm; 405 nm, 7 days after inoculation; compound-free control = 100%
Phytophthora infestans = assay type: cell-based; conditions: 32 ppm; 405 nm, 7 days after inoculation; compound-free control = 100%
Leptosphaeria nodorum = assay: Activity against wheat leaf spots, microtiter test; assay type: cell-based; conditions: 32 ppm; 405 nm, 7 days after inoculation; compound-free control = 100%
[6] = comparative microtest Example 7
[7] = comparative microtest Example 4
[8] = 32 ppm, 405 nm, compound-free control = 100%

CC(F)C(O)(Cn1cncn1)c1ccc(Oc2ccc(Cl)cc2)cc1Cl (stereo not shown)
Disease (%) at 150 ppm (Septoria tritici [1]): 50%

CCC(O)(Cn1cncn1)c1ccc(Oc2ccc(Cl)cc2)cc1Cl (stereo not shown) [Compound I-1, 2-[2-chloro-4-(4-chlorophenoxy)phenyl]-1-(1,2,4-triazol-1-yl)butan-2-ol]
Disease (%) at 150 ppm (Septoria tritici [1]): 10% | Growth (%) at 8 pm (Pyrenophora teres): 13% | Disease (%) at 16 ppm (Septoria tritici [2]): 40% | Disease (%) at 16 ppm (Fusarium culmorum; untreated control 90, listed as Table 1, 1): 0% and 1% | Growth (%) at 0.000125 pm (Alternaria solani): 1% | Growth (%) at 0.5 pm (Pyricularia oryzae [3]; [6]): 15% | melting point: 140 to 142 °C | Disease (%) at 250 ppm (Pyricularia oryzae [4]): 20%

CCCC(O)(Cn1cncn1)c1ccc(Oc2ccc(Cl)cc2)cc1Cl (stereo not shown) [Compound I-2, 2-[2-chloro-4-(4-chloro-phenoxy)-phenyl]-1-[1,2,4]triazol-1-yl-pentan-2-ol]
Growth (%) at 8 pm (Pyrenophora teres): 57% | Growth (%) at 0.5 pm (Pyricularia oryzae [3]; [7]): 4% | melting point: 132 to 135 °C

CC#CC(O)(Cn1cncn1)c1ccc(Oc2ccc(Cl)cc2)cc1Cl (stereo not shown) [Compound I-8, 2-[2-chloro-4-(4-chlorophenoxy)phenyl]-1-(1,2,4-triazol-1-yl)pent-3-yn-2-ol]
melting point: 139 °C

OC(Cn1cncn1)(c1ccc(Oc2ccc(Cl)cc2)cc1Cl)C1CC1 (stereo not shown) [Compound I-9]
Disease (%) at 16 ppm (Fusarium culmorum; untreated control 90): 5% | Growth (%) at 0.000125 pm (Alternaria solani): 1% | melting point: 110 °C

C=CC(O)(Cn1cncn1)c1ccc(Oc2ccc(Cl)cc2)cc1Cl (stereo not shown) [Compound I-10]
Growth (%) at 0.5 pm (Botrytis cinerea): 0% | Growth (%) at 0.5 pm (Alternaria solani): 0% | melting point: 119 °C

C#CCC(O)(Cn1cncn1)c1ccc(Oc2ccc(Cl)cc2)cc1Cl (stereo not shown) [Compound I-11, 2-[2-chloro-4-(4-chloro-phenoxy)-phenyl]-1-[1,2,4]triazol-1-yl-pent-4-yn-2-ol]
relative growth of the pathogen (Botrytis cinerea; [8]): 0% | relative growth of the pathogen (Septoria tritici [5]): 9% | relative growth of the pathogen (Phytophthora infestans): 12% | relative growth of the pathogen (Alternaria solani; [8]): 2% | relative growth of the pathogen (Leptosphaeria nodorum): 2% | relative growth of the pathogen (Pyricularia oryzae [3]; [8]): 0%

CC(O)(Cn1cncn1)c1ccc(Oc2ccc(Cl)cc2)cc1Cl (stereo not shown) [drawing 6]
Growth (%) at 8 pm (Pyrenophora teres): 62%

CCC(Cn1cncn1)(OC)c1ccc(Oc2ccc(Cl)cc2)cc1Cl (stereo not shown) [drawing 7]
Growth (%) at 8 pm (Pyrenophora teres): 39%

CCCC(Cn1cncn1)(OC)c1ccc(Oc2ccc(Cl)cc2)cc1Cl (stereo not shown) [drawing 9]
Growth (%) at 8 pm (Pyrenophora teres): 77%

OC(/C=C/c1ccccc1)(Cn1cncn1)c1ccc(Oc2ccc(Cl)cc2)cc1Cl (stereo not shown) [drawing 11, reference compound]
Growth (%) at 0.5 pm (Alternaria solani): 91%

OC(/C=C/c1ccccc1)(Cn1cncn1)c1ccc(Oc2ccc(Cl)cc2)cc1Cl (stereo not shown) [drawing 13, reference compound]
Growth (%) at 0.5 pm (Botrytis cinerea): 77%

CCCC(Cn1cncn1)(OC)c1ccc(Oc2ccc(Cl)cc2)cc1Cl (stereo not shown) [drawing 15, reference compound]
Growth (%) at 0.5 pm (Pyricularia oryzae [3]; [7]): 30%

CC(O)(Cn1cncn1)c1ccc(Oc2ccc(Cl)cc2)cc1Cl (stereo not shown) [drawing 17, reference compound]
Growth (%) at 0.000125 pm (Alternaria solani): 45%

CCC(Cn1cncn1)(OC)c1ccc(Oc2ccc(Cl)cc2)cc1Cl (stereo not shown) [drawing 18, reference compound]
Growth (%) at 0.000125 pm (Alternaria solani): 83%

CC(O)(Cn1cncn1)c1ccc(Oc2ccc(Cl)cc2)cc1Cl (stereo not shown) [drawing 21, reference compound]
Growth (%) at 0.5 pm (Pyricularia oryzae [3]; [6]): 82%

CCC(Cn1cncn1)(OC)c1ccc(Oc2ccc(Cl)cc2)cc1Cl (stereo not shown) [drawing 22, reference compound]
Growth (%) at 0.5 pm (Pyricularia oryzae [3]; [6]): 47%

OC(Cn1cncn1)c1ccc(Oc2ccc(Cl)cc2)cc1Cl (stereo not shown) [drawing 24]
Disease (%) at 150 ppm (Septoria tritici [1]): 60%

OC(Cn1cncn1)c1ccc(Oc2ccc(Cl)cc2)cc1Cl (stereo not shown) [drawing 27, reference compound]
Disease (%) at 250 ppm (Pyricularia oryzae [4]): 60%

CC(O)(Cn1cncn1)c1ccc(Oc2ccc(Cl)cc2)cc1Cl (stereo not shown) [drawing 29, reference compound]
Disease (%) at 16 ppm (Fusarium culmorum; untreated control 90): 25%

OC(Cn1cncn1)c1ccc(Oc2ccc(Cl)cc2)cc1Cl (stereo not shown) [drawing 32, reference compound]
Disease (%) at 16 ppm (Fusarium culmorum; untreated control 90): 30%

CCC(Cn1cncn1)(OC)c1ccc(Oc2ccc(Cl)cc2)cc1Cl (stereo not shown) [drawing 34, reference compound]
Disease (%) at 16 ppm (Septoria tritici [2]): 70%
